According to ChEMBL document CHEMBL1201862, “PubChem BioAssay data set” (2004):
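Compound exposure: 48 hours, 5 concentrations, 96-well plates. GI50 is the concentration that inhibits growth by half.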 Activity calls are given as the source filed them. Rule as the data show it: active = GI50 up to about 1.1 µM and inactive = higher.

How the values were obtained:
Experiment in all cases: NCI tumour cell line growth inhibition, 48 h
ACHN = system: ACHN
CAKI-1 = system: CAKI-1
COLO 205 = system: COLO 205
EKVX = system: EKVX
HOP-92 = system: HOP-92
K562 = system: K562
M14 = system: M14
Malme-3M = system: Malme-3M
NCI-H226 = system: NCI-H226
NCI/ADR-RES = system: NCI/ADR-RES
OVCAR-4 = system: OVCAR-4
OVCAR-5 = system: OVCAR-5
OVCAR-8 = system: OVCAR-8
PC-3 = system: PC-3
SK-MEL-2 = system: SK-MEL-2
SNB-75 = system: SNB-75
SW-620 = system: SW-620
UACC-62 = system: UACC-62
HL-60 = system: HL-60

| SMILES | GI50 (ACHN) | GI50 (CAKI-1) | GI50 (COLO 205) | GI50 (EKVX) | GI50 (HOP-92) | GI50 (K562) | GI50 (M14) | GI50 (Malme-3M) | GI50 (NCI-H226) | GI50 (NCI/ADR-RES) | GI50 (OVCAR-4) | GI50 (OVCAR-5) | GI50 (OVCAR-8) | GI50 (PC-3) | GI50 (SK-MEL-2) | GI50 (SNB-75) | GI50 (SW-620) | GI50 (UACC-62) | GI50 (HL-60) |
| --- | --- | --- | --- | --- | --- | --- | --- | --- | --- | --- | --- | --- | --- | --- | --- | --- | --- | --- | --- |
| O=C(Nc1ccc2oc(=O)c(C(=O)O)cc2c1)Oc1ccccc1 | > 100 µM (inactive) | > 100 µM (inactive) | > 100 µM (inactive) | > 100 µM (inactive) | > 100 µM (inactive) | > 100 µM (inactive) | > 100 µM (inactive) | > 100 µM (inactive) | > 100 µM (inactive) | > 100 µM (inactive) | > 100 µM (inactive) | > 100 µM (inactive) | > 100 µM (inactive) | > 100 µM (inactive) | > 100 µM (inactive) | > 100 µM (inactive) | > 100 µM (inactive) | > 100 µM (inactive) | – |
| Nc1nnc2oc3ccc4ccccc4c3cc1-2 | 20 µM (inactive) | 48.8 µM (inactive) | 23.6 µM (inactive) | 33.2 µM (inactive) | 26.2 µM (inactive) | 37.5 µM (inactive) | 37.4 µM (inactive) | 23 µM (inactive) | 21.5 µM (inactive) | 30.9 µM (inactive) | 30.8 µM (inactive) | 57.1 µM (inactive) | 32.4 µM (inactive) | 32.7 µM (inactive) | 27.7 µM (inactive) | 21.4 µM (inactive) | 36.1 µM (inactive) | 29 µM (inactive) | 21.9 µM (inactive) |
| O=[N+]([O-])c1ccc(O)c(/C=N/NC(=S)N2CCCCC2)c1 | 1.84 µM (inactive) | 3.51 µM (inactive) | 2.38 µM (inactive) | 2.42 µM (inactive) | 4.17 µM (inactive) | 4.95 µM (inactive) | 3.81 µM (inactive) | 1.64 µM (inactive) | 1.55 µM (inactive) | 1.59 µM (inactive) | 6.24 µM (inactive) | 16 µM (inactive) | 1.8 µM (inactive) | 7.48 µM (inactive) | 11.3 µM (inactive) | 4.22 µM (inactive) | 3.13 µM (inactive) | 3.3 µM (inactive) | 0.282 µM (active) |
| O=S(=O)(O)c1ccccc1/N=N\c1ccc(/N=N/c2c(O)ccc3ccccc23)c(S(=O)(=O)O)c1 | > 100 µM (inactive) | > 100 µM (inactive) | > 100 µM (inactive) | > 100 µM (inactive) | > 100 µM (inactive) | > 100 µM (inactive) | > 100 µM (inactive) | 19.4 µM (inactive) | > 100 µM (inactive) | > 100 µM (inactive) | > 100 µM (inactive) | > 100 µM (inactive) | > 100 µM (inactive) | > 100 µM (inactive) | > 100 µM (inactive) | > 100 µM (inactive) | > 100 µM (inactive) | > 100 µM (inactive) | – |
| C[n+]1cc2cc(O)c(O)cc2c2ccc3cc(O)c(O)cc3c21.c1ccncc1 | 2.69 µM (inactive) | 3.05 µM (inactive) | 10.3 µM (inactive) | 3.37 µM (inactive) | 2.31 µM (inactive) | 1.71 µM (inactive) | 2.18 µM (inactive) | 2.59 µM (inactive) | 4.86 µM (inactive) | 2.3 µM (inactive) | 2.88 µM (inactive) | 6.24 µM (inactive) | 3.1 µM (inactive) | 3.37 µM (inactive) | 3.05 µM (inactive) | 3.31 µM (inactive) | 3.51 µM (inactive) | 1.75 µM (inactive) | – |
| CC(=O)OCC1OC(n2c3c(cc(C#N)c2=S)CCC3)C(OC(C)=O)C(OC(C)=O)C1OC(C)=O (configuration not stated) | > 100 µM (inactive) | > 100 µM (inactive) | > 100 µM (inactive) | – | > 100 µM (inactive) | > 100 µM (inactive) | > 100 µM (inactive) | > 100 µM (inactive) | > 100 µM (inactive) | > 100 µM (inactive) | > 100 µM (inactive) | > 100 µM (inactive) | > 100 µM (inactive) | > 100 µM (inactive) | > 100 µM (inactive) | 68.1 µM (inactive) | > 100 µM (inactive) | > 100 µM (inactive) | > 100 µM (inactive) |
| Cc1sccc1C(=S)Nc1ccc(Cl)c(/C=N/OC(C)(C)C)c1 | – | 12 µM (inactive) | 13.9 µM (inactive) | 15.8 µM (inactive) | 13.9 µM (inactive) | – | 17.9 µM (inactive) | 15.1 µM (inactive) | 13.9 µM (inactive) | 17.8 µM (inactive) | 15.2 µM (inactive) | 19.3 µM (inactive) | 17.1 µM (inactive) | 15.4 µM (inactive) | 15.5 µM (inactive) | 21.1 µM (inactive) | 37.9 µM (inactive) | 16.6 µM (inactive) | 16.9 µM (inactive) |
